In US12552787B2, “Quinazoline compound” (MEDSHINE DISCOVERY INC., priority 2020, dated 2026):
Read-outs that look alike come from different tables or passages of the source.

Columns and labels:
[1] = molecular target: T1, KRAS(G12C) and SOS1 binding (Homo sapiens, UniProt Q07889); experiment: KRAS (G12C) and SOS1 binding assay (HTRF); details: 25° C., 60 minutes, read-out: IC50, inhibitory activity on KRAS(G12C) and SOS1 binding
T1 sequence (Q07889 564-1049): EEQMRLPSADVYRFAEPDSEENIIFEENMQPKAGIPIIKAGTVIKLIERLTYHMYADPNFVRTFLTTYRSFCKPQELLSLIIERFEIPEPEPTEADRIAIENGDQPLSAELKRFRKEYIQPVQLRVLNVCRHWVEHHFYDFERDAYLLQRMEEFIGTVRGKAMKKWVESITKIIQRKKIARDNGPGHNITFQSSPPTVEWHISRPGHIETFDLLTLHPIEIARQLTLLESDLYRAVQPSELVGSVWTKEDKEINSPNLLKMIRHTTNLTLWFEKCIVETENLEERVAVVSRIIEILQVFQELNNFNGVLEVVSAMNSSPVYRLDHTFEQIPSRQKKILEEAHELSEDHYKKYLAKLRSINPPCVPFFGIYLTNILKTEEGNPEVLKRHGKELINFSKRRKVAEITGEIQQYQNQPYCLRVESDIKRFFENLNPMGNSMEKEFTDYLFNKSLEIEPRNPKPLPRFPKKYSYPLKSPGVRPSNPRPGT
Method: (§1) 1. Experimental Materials:
Multifunctional microplate reader Nivo5 was purchased from PerkinElmer.
2. Preparation of 1× Buffer:
The buffer for this experiment was the current preparation.
Preparation method: 4-Hydroxyethylpiperazineethanesulfonic acid (Hepes): 5 mM; sodium chloride (NaCl): 150 mM; ethylenediaminetetraacetic acid (EDTA): 10 mM; CO-630 (Igepal): 0.0025%; potassium fluoride (KF): 100 mM; dithiothreitol (DTT): 1 mM; bovine serum albumin (BSA): 0.05%.
• 1) The compounds to be tested were diluted 5-fold with DMSO to the eighth concentration using a row gun, that is, from 1 mM to 0.064 μM. • 2) Each gradient of the compounds to be tested were diluted with 1× buffer into a working solution of 2% DMSO, 5 μL/well was added to the corresponding well, corresponding to a concentration gradient of 20 μM to […], and a double-duplication experiment was set up. The working solution was centrifuged at 1000 rpm for 1 minute. • 3) A mixed working solution of KRAS (G12C) (200 nM) and Mab Anti GST-Eu cryptate (1 ng/μL) was prepared with 1× buffer, then the mixed working solution was incubated at 25° C. for 5 minutes, and 2.5 μL/well was added to the corresponding well. • 4) A mixed working solution of SOS1 (80 nM) and Mab Anti 6HIS-XL665 ([…]) was prepared with 1× buffer, 2.5 μL/well was added to the corresponding well; 2.5 μL of Mab Anti 6HIS-XL665 ([…]) diluent was added to the blank well (Blank), at this time the final concentration gradient of the compounds was 10 μM diluted to 0.64 nM, KRAS (G12C) ([…]), MAb Anti GST-Eu cryptate (0.25 ng/μL), SOS1 (20 nM), Mab Anti 6HIS-XL665 (2 g/μL), and the reaction system was placed at 25° C. for 60 minutes. A multi-label analyzer was used for reading HTRF after the reaction was completed. 4. Data Analysis:
Using the equation (Sample−Min)/(Max−Min)×100% to convert the raw data into inhibition rate, and the value of IC50 might be obtained by curve fitting with four parameters (obtained by “Log(inhibitor) vs. response-Variable slope” mode in GraphPad Prism). Table 1 provides the inhibitory activity of the compounds of the present disclosure on KRAS(G12C) and SOS1 binding.

A427 cells = experiment: In vitro anti-proliferation assay of A427 cells (KRAS G12D); type: cell-based; details: Homo sapiens, A-427, 336 h; A427 cells in agarose gel, 14 days, Almar blue; read-out: IC50, inhibitory activity on the proliferation of A427 cells
From the text: as §1
EMEM culture medium, fetal bovine serum, penicillin/streptomycin antibiotics were purchased from Wisent, and low melting point agarose was purchased from Sigma. Almar blue reagent was purchased from Invitrogen. A427 cell line was purchased from Nanjing Cobioer Biotechnology Co., Ltd. Envision multi-label analyzer (PerkinElmer).
• 1) A427 cells were planted in a 96-well U-shaped plate, and the low melting point agarose was first prepared into a 2% mother solution. When used, the agarose mother solution was first heated in a microwave oven to completely melt, and then placed in a 42° C. water bath to keep the agarose in a liquid state. The gel was added to a serum-containing medium to prepare a gel concentration of 0.6% as the base gel, and spread into a 96-well U-shaped plate at 50 μL per well. After the base gel was solidified, 2% gel was added to a cell-containing medium to prepare a gel concentration of 0.4% of cell-containing top gel with a cell density of 4×10^4 cells/mL, which was added to a 96-well U-shaped plate spread with base gel at 75 μL per well with a cell density of 3000 cells per well. After the top gel was solidified, the cell plate was incubated overnight in a CO2 incubator. • 2) On the day of adding the compounds, 85 μL of liquid medium was added to the 96-well U-shaped plate in which the cells were spread. The compounds to be tested were diluted 3-fold with a row gun to the ninth concentration, that is, from 6 mM to 0.9 μM, and a double-duplication experiment was set up. 97 μL of culture medium was added to a middle plate, and then 2.5 μL of gradient diluted compound per well was transferred to the middle plate according to the corresponding position. After being thoroughly mixed, 40 μL per well was transferred to the cell plate. The concentration range of the compound transferred to the cell plate was 30 μM to 4.5 nM. […] A multi-label analyzer was used for reading. […]

[2] = Pharmacokinetic study in mice; type: in vivo; details: mouse, plasma; for AUC(0-t): read-out: AUC0-24 h
Method: The purpose of this experiment is to evaluate the pharmacokinetic behavior of the compounds after a single intravenous injection or intragastric administration in mice. For intravenous injection, the compound was prepared as a clear solution of 0.2 mg/mL, vehicle: 5% DMSO/95% (10% hydroxypropyl-β-cyclodextrin) aqueous solution; for intragastric administration, the compound was prepared as a suspension of 0.3 mg/mL, vehicle: 5% DMSO/95% (10% hydroxypropyl-β-cyclodextrin) aqueous solution.
The concentrations of compounds in plasma were determined by high performance liquid chromatography-tandem mass spectrometry (LC-MS/MS). Retention time of compounds and internal standard (diclofenac), chromatogram acquisition and integration of chromatogram were processed using the software Analyst (Applied Biosystems), and statistics of the data were processed using the software Watson LIMS (Thermo Fisher Scientific) or Analyst (Applied Biosystems). The concentration of analytes in the sample was expressed in ng/mL, with 3 valid digits retained. All values expressed as percentages (for example, % deviation and % coefficient of variation, etc.) were retained to one decimal point. Each calibration curve contained at least 6 concentration levels. The calibration specimen should be prepared using a stock solution from a different source than the quality control sample. The deviation between the calculated concentration of the calibration specimen and the indicated value exceeds ±15.0% (the lower limit of quantification exceeds ±20.0%) and the specimen should be rejected in the regression analysis. The rejected calibration specimens should be less than 25% and each calibration curve should contain at least 6 calibration specimens that meet the acceptance criteria. If the lower and upper limits of quantification calibration specimens need to be rejected, the upper and lower limits of quantification for the analytical batch will be raised and lowered accordingly.
Plasma concentrations were processed using the non-compartmental model of WinNonlin™ Version 6.3 (Pharsight, Mountain View, CA) pharmacokinetic software, and pharmacokinetic parameters were calculated using the linear-log trapezoidal method. The pharmacokinetic parameters to be calculated include but are not limited to (data permitting) T1/2, Vdss, CL, AUC0-24 h of IV group; Cmax, Tmax, AUC0-24 h, oral bioavailability (F %) of PO group.
The relevant pharmacokinetic parameters of the embodiment of the present disclosure in mice intravenously injected at a dose of 1 mg/Kg and intragastrically administered at a dose of 3 mg/Kg are shown in Table 5 below.

[3] = po, intragastric administration, 3 mg/Kg

Row | Structure (SMILES) | IC50 [1] | IC50 (A427 cells) | also measured
1 | C=CC(Nc1nc(C)nc2cc(=O)n(C3(C)CCOC3)cc12)c1cc(N)cc(C(F)(F)F)c1 (stereo not shown) [Compound 2] | 26 nM |  | 
2 | C=C[C@@H](Nc1nc(C)nc2cc(=O)n(C3(C(F)F)CCN(C(C)=O)C3)cc12)c1cccc(C(F)F)c1F (stereo partly shown) [Compound 15] |  | ≤ 100 nM | 
3 | C=C[C@@H](Nc1nc(C)nc2cc(=O)n(C3(C(F)F)CC3)cc12)c1cccc(C(F)F)c1F [Compound 8] |  | ≤ 100 nM | clearance ([2]; intravenous injection, 1 mg/Kg): 30.5 mL/min/kg; half-life ([2]; intravenous injection, 1 mg/Kg): 40.2 min; AUC(0-t) ([2]; intravenous injection, 1 mg/Kg): 1.77 µM·h; Vd ([2]; intravenous injection, 1 mg/Kg, read-out: Vdss): 1.84 L/kg; bioavailability ([2]; oral, intragastric 3 mg/Kg vs intravenous 1 mg/Kg, read-out: F % (oral bioavailability)): 109%; Cmax [2, 3]: 1380 nM; Tmax [2, 3]: 60 min; AUC(0-t) [2, 3]: 4.11 µM·h
4 | C=C[C@@H](Nc1nc(C)nc2cc(=O)n(C3(C(F)F)CC3)cc12)c1cc(C(F)(F)CO)cs1 [Compound 7] | 13 nM |  | 
5 | C=CC(Nc1nc(C)nc2cc(=O)n(C3(CF)CC3)cc12)c1cc(N)cc(C(F)(F)F)c1 (stereo not shown) [Compound 3] | 25 nM |  | 
6 | C=C[C@@H](Nc1nc(C)nc2cc(=O)n(C3(C)CCN(C(C)=O)C3)cc12)c1cccc(C(F)F)c1F (stereo partly shown) [Compound 13] |  | ≤ 100 nM | 
7 | C=CC(Nc1nc(C)nc2cc(=O)n(C34CCC(O)(CC3)CC4)cc12)c1cc(N)cc(C(F)(F)F)c1 (stereo not shown) [Compound 4] | 21 nM |  | 
8 | C=CC(Nc1nc(C)nc2cc(=O)n(C3CCOCC3)cc12)c1cc(N)cc(C(F)(F)F)c1 (stereo not shown) [Compound 1] | 32 nM |  | 
